Data as given in patent publication US11413324B2, “Compositions and methods for treating peripheral nerve disease, disorders, and injuries” (University of Virginia Patent Foundation, priority 2017, dated 2022).
“Also recorded” adds a separate entry of the source. Counter-ions that a name gives are not always drawn.

Experiments:
peripheral olig2^+ OPCs = experiment: Quantification of peripheral olig2+ OPCs at 3 dpf in drug-treated olig2:dsred larvae; type: in vivo, zebrafish; conditions: for number of peripheral olig2+ OPCs: 24 to 72 hpf; for peripherally migrated OPCs at 3 dpf after neurotransmitter receptor antagonist: compared to control
larvae = experiment: Toxicity, death or morphological defects of treated or injected larvae; conditions: 40 μM, 36 to 72 hpf, n=1 survivor
[1] = system: OPC migration through the MEP TZ; conditions: 10 μM, 24 to 72 hpf, 3 larvae imaged 55 to 72 hpf
Procedure: Embryos were anesthetized with 0.01% 3-aminobenzoic acid ester (Tricaine), immersed in 0.8% low-melting point agarose and mounted laterally in glass-bottomed 35 mm petri dishes (Electron Microscopy Sciences). After mounting, the petri dish was filled with egg water containing PTU and Tricaine. For some experiments, chemical compounds were also dissolved in the water. A 25× multi-immersion objective (NA=0.8), 40× oil objective (NA=1.4) and a 40× water objective (NA=1.1) mounted on a motorized Zeiss AxioObserver ZI microscope equipped with a Quorum WaveFX-XI spinning disc confocal system (Quorum Technologies Inc.) were used to capture images. Image processing was performed with MetaMorph and Photoshop to enhance brightness and contrast of images. The Fiji plugin MTrackJ was used to annotate time-lapse movies (Meijering et al., 2012).
In order to distinguish OPCs from motor neurons, we used embryos expressing olig2:dsred and sox10:eos, where sox10 regulatory elements drive expression of Eos in central and peripheral glia. […] We treated these embryos with 10 μM of CGS-15943 from 24 to 72 hpf and imaged 3 larvae (10 nerves total) from 55 to 72 hpf.

MEP glia = experiment: Presence of MEP glia (sox10+/olig2+ cells, wif1 in situ hybridization) on motor nerves; type: in vivo, zebrafish; conditions: for percentage of motor nerves with sox10+/olig2+ MEP glia at the MEP TZ: 36 to 72 hpf, vs DMSO, p=0.14
Procedure: Larvae were fixed in 4% PFA at 4° C. overnight and stored in 100% methanol at −20° C. and processed for in situ RNA hybridization. Plasmids were linearized with appropriate restriction enzymes and cRNA preparation was carried out using Roche DIG-labeling reagents and RNA polymerases (NEB). We used a previously published probe for wif1 (Smith et al., 2014). After in situ hybridization, embryos were embedded in 1.5% agarose/30% sucrose and frozen in 2-methylbutane chilled by immersion in liquid nitrogen. We collected 20 μm transverse sections on microscope slides using a cryostat microtome and covered with 75% glycerol. Images were obtained using a Zeiss AxioObserver inverted microscope using a 40× oil immersion objective. All images were imported into Adobe Photoshop. Adjustments were limited to levels, contrast, and cropping.
We therefore sought to determine whether antagonizing the A2a AR lead to ectopic OPC migration simply by perturbing MEP glial development. MEP glia can be identified by the co-expression of sox10:eos and olig2:dsred as well as expression of wnt inhibitory factor 1 (wif1) (Smith et al., 2014).

perineurial glia (PG) = conditions: 1.25 μm CGS-15943, 36 to 55 hpf
Eos^+ cells = experiment: Number of Eos+ cells (Schwann cells and MEP glia) per motor nerve in sox10:eos larvae; type: in vivo, zebrafish; conditions: 36 to 72 hpf, 72 hpf sox10:eos larvae, p=0.08
[2] = system: peripheral OPCs myelinating spinal motor axons; experiment: gpr126 mutant peripheral neuropathy model: peripheral OPCs and myelination of spinal motor nerves; type: in vivo, zebrafish
Text: This led us to hypothesize that OPCs could be pharmacologically recruited onto peripheral nerves in order to myelinate them. […] However, in these studies, OPCs populated the nerve in the context of genetic mutations resulting in the death or absence of both SCs and MEP glia. Therefore, we wanted to determine if it was possible to recruit OPCs to myelinate peripheral motor nerves in a model more closely resembling human peripheral neuropathies, in which SCs are present, but fail to myelinate. To do this, we used zebrafish harboring a mutation in g protein coupled receptor 126 (gpr126), a model of peripheral neuropathy in which SCs ensheath, but fail to myelinate peripheral nerves (Monk et al., 2009). OLs are present in normal numbers in these mutants, and central myelination is completely normal (Monk et al., 2009).
Therefore, we tested whether treatment with the A2a AR antagonist would result in peripherally-migrated OPCs ensheathing peripheral spinal motor nerves in these mutants. […] We then performed in vivo, time-lapse imaging on nkx2.2a:megfp;olig2:dsred;gpr126^−/− mutants in order to visualize whether these peripheral OPCs initiated myelination of peripheral nerves. The transgene nkx2.2a:megfp is expressed by pre-myelinating OPCs and enables clear visualization of membrane structures (Kucenas et al., 2008a). No other cells in the spinal cord or at the MEP TZ express both nkx2.2a and olig2, so use of these transgenes allowed us to unambiguously identify membrane sheaths coming from OPCs. […] Thin OPC membrane processes extended toward peripheral motor axons and formed membrane sheaths around them (FIG. 6D). The timing of sheath initiation on peripheral axons coincided with sheath initiation within the spinal cord, and some peripheral sheaths stabilized and elongated during the course of the time-lapse (FIG. 6D). This time-lapse data rules out the possibility that SCH-58261 treatment stimulates SCs to myelinate the nerve, since nkx2.2a^+ OPC processes can be clearly seen ensheathing nerve segments.
To examine whether these membrane sheaths were in fact myelin, we treated gpr126 mutants from 36 to 72 hpf with SCH-58261 or DMSO, fixed larvae at 4 dpf, and labeled with an antibody specific to myelin basic protein (MBP) using immunohistochemistry (Kucenas et al., 2009). In mutants treated with DMSO, we observed MBP only on a short segment of the proximal nerve root (FIG. 6E), which is consistent with our previous data showing that differentiated MEP glia express MBP in this region (Smith et al., 2014). […] As further confirmation that peripheral OPCs myelinate spinal motor nerve roots following treatment with SCH-58261, we imaged gpr126^−/− larvae expressing the transgenes mbp:egfp and olig2:dsred from 72 to 86 hpf (n=3) (FIG. 6F). In these time-lapses, we observed olig2^+ OPCs beginning to ensheath peripheral nerves with mbp^+ membrane tubes. Out of 12 nerves imaged, OPCs migrated out of the spinal cord onto 4 nerves, and an additional 3 nerves had OPCs already present at the beginning of the time-lapse. Multiple EGFP^+ membrane tubes extended from single OPCs and ensheathed most of the nerve root on all 7 nerves with OPCs present. These long membrane tubes were consistent with the pattern of MBP antibody labeling on the nerves of SCH-58261-treated mutants (FIG. 6E). Both the MBP antibody and mbp:egfp labeling were closely associated with an olig2^+ cell body, providing further evidence that peripherally-migrated OPCs and not SCs, initiate myelination in gpr126 mutants treated with SCH-58261 (FIGS. 6D&E). From these experiments, we conclude that OPCs can be recruited onto peripheral motor nerves and initiate myelination, even in the presence of MEP glia and SCs.

peripheral olig2^+ cells = experiment: Chemical screen of the LOPAC 1280 library: peripheral olig2+ cells scored in olig2:dsred larvae at 72 hpf; type: in vivo, zebrafish; conditions: 4 μM, 24 to 72 hpf, pilot experiment, positive control
[3] = dose responses of selective A1, A2b, A3 antagonists
[4] = gpr126−/− mbp:egfp;olig2:dsred, imaged 72 to 86 hpf, 12 nerves imaged

Structure (SMILES): CCCn1c(=O)c2[nH]c(-c3ccc(OCC(=O)Nc4ccc(C#N)cc4)cc3)nc2n(CCC)c1=O [MRS-1754]
- number of peripheral olig2+ OPCs (peripheral olig2^+ OPCs; [3]): did not observe peripheral OPCs

Structure (SMILES): NS(=O)(=O)c1cccc2c1c([N+](=O)[O-])cc1[nH]c(=O)c(=O)[nH]c12 [NBQX, 2,3-Dioxo-6-nitro-1,2,3,4-tetrahydrobenzo[f]quinoxaline-7-sulfonamide]
- peripherally migrated OPCs at 3 dpf after neurotransmitter receptor antagonist (peripheral olig2^+ OPCs; 36 to 72 hpf, olig2:dsred): significant numbers of peripherally-migrated OPCs

Structure (SMILES): CC1(C)[C@@H](OC(=O)CCC(=O)O)CC[C@]2(C)[C@H]3C(=O)C=C4[C@@H]5C[C@@](C)(C(=O)O)CC[C@]5(C)CC[C@@]4(C)[C@]3(C)CC[C@@H]12 [carbenoxolone]
- peripherally-migrated OPCs, treatment alone versus combined with TeNT mRNA (peripheral olig2^+ OPCs; 10 μM, 36 to 72 hpf, counted at 72 hpf, p=0.04): more peripherally-migrated OPCs
- peripherally-migrated OPCs at 3 dpf (peripheral olig2^+ OPCs; 36 to 72 hpf, p<0.001 for 10 μM and p<0.0001 for 20 μM): significant numbers of peripherally-migrated OPCs
- larvae that died at this dose (larvae): 9

Structure (SMILES): Nc1nc2ccc(Cl)cc2c2nc(-c3ccco3)nn12 [CGS-15943, 9-Chloro-2-(2-furanyl)-[1,2,4]triazolo[1,5-c]quinazolin-5-amine]
- OPCs migrating through a single MEP TZ [1]: ≤ 2
- nerves on which OPC cell bodies migrated onto peripheral spinal motor nerves during imaging [1]: 6 out of 10
- nerves on which OPCs extend membrane processes through the MEP TZ [1]: 9 out of 10
- nerves with OPCs already present before 60 hpf [1]: 3 out of 10
- nerves with olig2+/sox10− motor neurons in the periphery [1]: 0 out of 10
- number of peripheral olig2+ OPCs (peripheral olig2^+ OPCs; doses of 1.25 and 20 μM, p<0.01): significant peripheral OPC migration
- wif1+ MEP glia (in situ hybridization) (MEP glia; 1.25 μM): observed wif1^+ MEP glia; also recorded: have wif1^+ MEP glia
- percentage of motor nerves with sox10+/olig2+ MEP glia at the MEP TZ (MEP glia; 1.25 μM): no differences
- PG extension from the spinal cord along the motor nerve (mean SEM) (perineurial glia (PG); 55 hpf larvae, 10 nerves per larva): 24.94±1.75 μm
- PG extension compared with DMSO-treated larvae (perineurial glia (PG); p=0.28): no difference in PG extension

Structure (SMILES): CCOC(=O)C1=C(C)NC(c2ccccc2)=C(C(=O)OCc2ccccc2)C1C#Cc1ccccc1 (stereo not drawn) [MRS-1191]
- number of peripheral olig2+ OPCs (peripheral olig2^+ OPCs; [3]): did not observe peripheral OPCs

Structure (SMILES): Nc1nc2c(cnn2CCc2ccccc2)c2nc(-c3ccco3)nn12 [SCH-58261, 7-(2-phenylethyl)-5-amino-2-(2-furyl)-pyrazolo-[4,3-e]-1,2,4-triazolo[1,5-c]pyrimidine]
- number of peripheral olig2+ OPCs (peripheral olig2^+ OPCs; 10 μM, p<0.01 compared to DMSO): significant numbers of peripheral olig2^+ OPCs
- peripheral OPC migration by treatment window (peripheral olig2^+ OPCs; 10 μM, exposure beginning later than 54 hpf or ending earlier than 54 hpf, counted at 3 dpf): did not result in any peripheral OPC migration
- peripheral OPCs in WT or adora2aa−/− mutants (peripheral olig2^+ OPCs; SCH-58261 36 to 72 hpf, olig2:dsred, treatment p<0.0001, genotype p=0.53): observed peripheral OPCs in both genotypes
- percentage of motor nerves with sox10+/olig2+ MEP glia at the MEP TZ (MEP glia; 10 μM): no differences
- number of Eos+ cells per nerve compared with DMSO (Eos^+ cells): not significantly different
- olig2+ OPCs in the periphery of gpr126 mutants ([2]; 10 μM, 36 to 72 hpf, vs DMSO, p=0.009): significant number of olig2^+ OPCs in the periphery
- MBP antibody labeling on peripheral nerves ([2]; gpr126 mutants treated 36 to 72 hpf, fixed at 4 dpf): MBP labeling was present further distally along the nerve
- nerves with OPCs on which EGFP+ membrane tubes ensheathed most of the nerve root ([2]; gpr126−/− mbp:egfp;olig2:dsred, imaged 72 to 86 hpf): 7 nerves
- additional nerves with OPCs already present at the beginning of the time-lapse [2, 4]: 3 nerves
- nerves onto which OPCs migrated out of the spinal cord during time-lapse [2, 4]: 4 nerves
- ensheathment of peripheral motor axons by nkx2.2a+/olig2+ OPCs (time-lapse) ([2]; nkx2.2a:megfp;olig2:dsred;gpr126−/−, treated 36 to 72 hpf): initiate ensheathment of peripheral spinal motor axons

Structure (SMILES): Cn1c(=O)c2[nH]c(C3CCCC3)nc2n(C)c1=O [CPT, 8-cyclopentyltheophylline]
- number of peripheral olig2+ OPCs (peripheral olig2^+ OPCs; [3]): did not observe peripheral OPCs

Structure (SMILES): COc1cc2ncnc(Nc3cccc(Cl)c3)c2cc1OC [AG1478]
- peripheral OPC migration (peripheral olig2^+ cells): robust peripheral OPC migration

Structure (SMILES): C[C@]12N[C@H](Cc3ccccc31)c1ccccc12 [MK-801, (5S,10R)-(+)-5-Methyl-10,11-dihydro-5H-dibenzo[a,d]cyclohepten-5,10-imine maleate]
- peripherally migrated OPCs at 3 dpf after neurotransmitter receptor antagonist (peripheral olig2^+ OPCs; 36 to 72 hpf, olig2:dsred): resulted in peripheral OPC migration
